Data as given in patent US20180353460A1, “METHODS OF TREATING UROLOGICAL DISORDERS USING SARMs” (priority 2014, published 2018).
Several values for one entry are separate records, joined by “and”; a condition that tells them apart may be missing. Equal entries are not always repeated.

How the values were obtained:
levator ani muscle = experiment: Earlier male rat model with castrate levels of serum testosterone; type: in vivo
Text: (§1) Extensive clinical data related to the use of Compound IX are described below; however, there are both preclinical and clinical data supporting the specific investigation of Compound IX for the treatment of SUI. Among the preclinical findings are that Compound IX has androgenic and anabolic activity in male and female rat models. […] These studies together provide an approximation of the expected effect of Compound IX, since currently there are no data in female models regarding levator ani hypertrophy or stress urinary incontinence. […] Based upon these preclinical and clinical analyses, a significant growth/bulking of the levator ani in females with SUI was anticipated, which may also result in improvements in associated symptoms, and are therefore the focus of the study outlined herein.

[1] = system: postmenopausal women with SUI; experiment: Proof of concept clinical study: 24 hour pad weight test; type: in vivo, human; settings: for Mean Pad Weights % Reduction: week 12
Text: (§2) Secondary Objectives: • To describe the effect of 12 weeks of treatment of Compound IX on the number of voids/day as assessed by the 3 days voiding diary. […] See Tables 2 (individual subject data) and Tables 4-6 (mean pad weight data for sites 1, 2, and 3, respectively), and FIG. 17 for mean and median reductions in pad weights from baseline to week 12 (across all sites). • To describe the effect of 12 weeks of treatment of Compound IX on SUI as assessed by the Urethral Pressure Profile (UPP). The UPP assessment was removed from the protocol because it is invasive and not standard of care. […] See summary data for all subjects across the 3 sites reported in Table 7 and FIGS. 13A and 13B. • Described is the effect of 12 weeks of treatment of Compound IX on subject reported impression of stress urinary incontinence severity as assessed by the Patient Global Impression of Severity Scale (PGI-S). See summary data for all subjects across the 3 sites reported in FIG. 12A. • Described is the effect of 12 weeks of treatment of Compound IX on subject reported impression of improvement as assessed by the Patient Global Impression of Improvement Scale (PGI-I). See summary data for all subjects across the 3 sites reported in FIG. 12B. • Described is the effect of 12 weeks of treatment of Compound IX on subject reported urogenital distress as assessed by the Urinary Distress Inventory Questionnaire (UDI-6). See summary data for all subjects across of 3 sites reported in Table 7 and FIG. 12C. • Described is the effect of 12 weeks of treatment of Compound IX on subject reported impact of urinary incontinence on daily life as assessed by the Incontinence Impact Questionnaire (IIQ-7). See summary data for all subjects across the 3 sites reported in Table 7 and FIG. 12D. • Described is the effect of 12 weeks of treatment of Compound IX on subject reported sexual function as indicated on the completion of the Female Sexual Function Index Questionnaire (FSFI). See summary data for all subjects across the 3 sites reported in Table 7 and FIG. 15. • Described is the effect of 12 weeks of treatment of Compound IX on pelvic floor muscles as measured by MRI. See FIG. 11 wherein the pelvic MRI for one representative subject on trial is reported at baseline and at 12 weeks, FIG. 16 wherein the pelvic MRI's for three representative subjects on trial are reported at baseline and at 12 weeks, and Example 19 and Table 13 which provide individual measurements of levator ani thickness, inner and outer diameter of the urethra, and endometrial thickness, and mean changes in the same from baseline to week 12.
Reported herein are data for the first 18 patients at 12 weeks for the secondary endpoints of 24 hour pad weight test (Tables 2 and 4-6, and FIG. 17) and change in levator ani muscle, urethra, and endometrium for a selected subjects from Baseline to Week 12 as measured by quantitative MRI (FIGS. 11 and 16, Table 13 and Example 19). Data collection/analysis for these and additional secondary endpoints such as frequency of daily voids, urine volume per void, and bladder stress test is still ongoing.
Overall, the median pad weight decreased by 78%, from 31.07 grams at baseline to 6.97 grams at week 12; whereas mean pad weights decreased by 71% from 74.26 grams at baseline to 21.4 grams at week 12.

[2] = system: postmenopausal women with SUI and UUI; experiment: Proof of concept clinical study: urge incontinence leaks per day; type: in vivo, human
Text: Unexpectedly, Compound IX reduced the median and mean number of urge leaks by ˜60-70% at the week 12 endpoint (Table 12). FIG. 14 provides mean urge leaks/day data over the course of the study in these 11 patients. At baseline the mean was 1.41 urge leaks per day which was reduced to 0.45 urge leaks per day at weak 12, representing a 68% decrease from baseline. Further, the effect on urge incontinence is durable for at least 7 months (N=7) with 0.62 urge leaks per day at 40 weeks (7 months after the last dose of Compound IX). It was unexpected to see any effect of Compound IX on urge incontinence much less such a dramatic and durable effect.
To summarize: while all of the women in the trial had predominant SUI, some also experienced urge urinary incontinence (UUI).

male and female humans = experiment: Phase 3 studies G300504 and G300505: lean body mass; type: in vivo, human; settings: 3 mg daily, two phase 3 studies
Text: as §1

[3] = system: postmenopausal women with SUI; experiment: Proof of concept clinical study: quality of life questionnaires (FSFI, UDI-6, IIQ-7, MESA, PGI-I, PGI-S); type: in vivo, human
Text: as §2
The data were collected from 18 patients at 12 weeks. Data collection/analysis for additional secondary endpoints are ongoing. Women reported improved quality of life measurements in each of the five instruments collected in the study, including the Patient Global Impression of Improvement (PGI-I) and Female Sexual Function Index (FSFI). FIG. 15 provides the FSFI overall scores from baseline to 16 weeks.
The QOL measurements are described in greater detail above and are well-known and validated measures.

Question: With `C[C@](O)(COc1ccc(C#N)cc1)C(=O)Nc1ccc(C#N)c(C(F)(F)F)c1` [Compound IX, (S)—N-(4-Cyano-3-(trifluoromethyl)phenyl)-3-(4-cyanophenoxy)-2-hydroxy-2-methylpropanamide] as the molecule, how does the “hypertrophy of the levator ani muscle” value (levator ani muscle) read?
Answer: approximately 120 % of an intact male

Question: What about the “Mean Pad Weights % Reduction” value ([1]; Site 1 (n = 10)) of the same molecule?
Answer: 77%

Question: What about the “Mean Pad Weights % Reduction” value ([1]; Site 2 (n = 5)) of the same molecule?
Answer: 66%

Question: And the “Mean Pad Weights % Reduction” value ([1]; Site 3 (n = 2))?
Answer: 74%

Question: And the “decrease of mean pad weight at week 12” value ([1]; all sites)?
Answer: 71% and 78%

Question: What about the “decrease of median pad weight at week 12” value ([1]; all sites) of the same molecule?
Answer: 78% and 71%

Question: And the “median pad weight at week 12” value ([1]; baseline 31.07 grams)?
Answer: 6.97 grams

Question: And the “mean pad weight at week 12” value ([1]; baseline 74.26 grams)?
Answer: 21.4 grams

Question: And the “Pad Weights at Week 12” value ([1]; individual patients, 3 mg/day p.o., 24 hour pad weight)?
Answer: 7.31 grams and 7.74 grams and 4.54 grams and 26.93 grams and 3.58 grams and −2.3 grams and 204.4 grams and 14.3 grams and 10.1 grams and 29 grams and 6.9 grams and 5.63 grams and 3.9 grams and 6.13 grams and 7.04 grams and 37.27 grams and 6.48 grams and 6.71 grams

Question: What about the “% Reduction in pad weight (Week 12)” value ([1]; individual patients, week 12 vs baseline) of the same molecule?
Answer: 88% and 55% and 52% and 45% and 98% (2×) and “126%” and 51% and 82% and 75% and 81% and 91% (2×) and 59% and 80% and 27%

Question: And the “Median urge incontinence leaks per day, Week 12” value ([2]; 11 patients with >0 baseline leaks, baseline 1.3)?
Answer: 0.3

Question: What about the “Mean urge incontinence leaks per day, Week 12” value ([2]; 11 patients with >0 baseline leaks, baseline 1.41) of the same molecule?
Answer: 0.45 leaks/day

Question: What about the “mean urge leaks per day at 40 weeks” value ([2]; N=7, 7 months after the last dose) of the same molecule?
Answer: 0.62 urge leaks per day

Question: What about the “Number of Urge Incontinence Leaks per Day, Week 12” value ([2]; individual patients, 3 mg/day p.o.) of the same molecule?
Answer: 0 (10×) and 0.33 and 1 (2×) and 0.3 and 2.7 and 1.67 and 0.67

Question: What about the “women with a reduction in UUI episodes per day of at least 50 percent” value ([2]; week 12) of the same molecule?
Answer: 8 of 11

Question: And the “women with a reduction in their number of UUI leaks compared to baseline” value ([2]; week 12)?
Answer: 9 of 11 and 11 of 11

Question: What about the “reduction of median and mean number of urge leaks” value ([2]; week 12 endpoint, 11 patients) of the same molecule?
Answer: 60-70%

Question: What about the “increase in lean body mass” value (male and female humans) of the same molecule?
Answer: approximately 1.7%

Question: And the “patients reporting moderate symptoms on PGI-S” value ([3]; 12 weeks, 12 patients moderate or severe at baseline, none severe at 12 weeks)?
Answer: 3 patients

Question: What about the “MESA Urge median score at 12 weeks” value ([3]; 18 patients, baseline 56) of the same molecule?
Answer: 22

Question: What about the “MESA Stress median score at 12 weeks” value ([3]; 18 patients, baseline 79.5) of the same molecule?
Answer: 44.5

Question: What about the “UDI-6 median score at 12 weeks” value ([3]; scale range 0-100, baseline 45.83) of the same molecule?
Answer: 31.25

Question: What about the “IIQ-7 median score at 12 weeks” value ([3]; scale range 0-100, baseline 50.00) of the same molecule?
Answer: 11.90

Question: What about the “FSFI median score at 12 weeks” value ([3]; scale range 2-36, baseline 15.90) of the same molecule?
Answer: 28.05 and 28.00 and 28.20

Question: And the “patients with improved PGI-I scores” value ([3]; week 12)?
Answer: 17 of 18
